Assay results published in patent publication US8802597B2, “Herbicidal pyrimidines” (E I du Pont de Nemours and Company, priority 2003, dated 2014).

How the values were obtained:
Format in all cases: in vivo
[1] = system: giant foxtail (Setaria faberi); test: Test A pre/postemergence
How it was run: (§1)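 Greenhouse herbicide test with preemergence directed soil spray and postemergence foliar spray at the 1- to 2-leaf stage; visual control rating 0–100 versus untreated at ~10 days.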

[2] = system: velvetleaf (Abutilon theophrasti); test: Test A pre/postemergence
How it was run: as §1

[3] = system: crabgrass (Digitaria sanguinalis); test: Test A pre/postemergence
How it was run: as §1

[4] = system: redroot pigweed (Amaranthus retroflexus); test: Test A pre/postemergence
How it was run: as §1

[5] = system: barnyardgrass (Echinochloa crus-galli); test: Test A pre/postemergence
How it was run: as §1

[6] = system: morningglory (Ipomoea spp.); test: Test A pre/postemergence
How it was run: as §1

[7] = system: transplanted rice seedlings (Oryza sativa cv. ‘Japonica-M202’); test: Test E flooded paddy water application; conditions: Flood, 21 days, scale 0 to 100 (0 no effect, 100 complete control)
Source text: (§2) Three plastic pots (ca. 16-cm diameter) per rate were partially filled with sterilized Tama silt loam soil comprising a 35:50:15 ratio of sand, silt and clay and 2.6% organic matter. Separate plantings for each of the three pots were as follows. Seeds from the U.S. of ducksalad (Heteranthera limosa), smallflower umbrella sedge (Cyperus difformis) and purple redstem (Ammannia coccinea), were planted into one 16-cm pot for each rate. Seeds from the U.S. of rice flatsedge (Cyperus iria), bearded (brdd.) sprangletop (Leptochloa fusca ssp. fascicularis), one stand of 9 or 10 water seeded rice seedlings (Oryza sativa cv. ‘Japonica-M202’), and one stand of 6 transplanted rice seedlings (Oryza sativa cv. ‘Japonica-M202’) were planted into one 16-cm pot for each rate. Seeds from the U.S. of barnyardgrass (Echinochloa crus-galli), late watergrass (Echinochloa oryzicola), early watergrass (Echinochloa oryzoides) and junglerice (Echinochloa colona) were planted into one 16-cm pot for each rate. Plantings were sequential so that crop and weed species were at the 2.0 to 2.5-leaf stage at time of treatment.
(§3) Potted plants were grown in a greenhouse with day/night temperature settings of 29.5/26.7° C., and supplemental balanced lighting was provided to maintain a 16-hour photoperiod. Test pots were maintained in the greenhouse until test completion.
(§4) At time of treatment, test pots were flooded to 3 cm above the soil surface, treated by application of test compounds directly to the paddy water, and then maintained at that water depth for the duration of the test. Effects of treatments on rice and weeds were visually evaluated by comparison to untreated controls after 21 days. Plant response ratings, summarized in Table E, are based on a scale of 0 to 100 where 0 is no effect and 100 is complete control. A dash (-) response means no test result.

[8] = system: early watergrass (Echinochloa oryzoides); test: Test E flooded paddy water application; conditions: Flood, 21 days, scale 0 to 100 (0 no effect, 100 complete control)
Source text: as §2, §3, §4

[9] = system: purple redstem (Ammannia coccinea); test: Test E flooded paddy water application; conditions: Flood, 21 days, scale 0 to 100 (0 no effect, 100 complete control)
Source text: as §2, §3, §4

[10] = system: water seeded rice seedlings (Oryza sativa cv. ‘Japonica-M202’); test: Test E flooded paddy water application; conditions: Flood, 21 days, scale 0 to 100 (0 no effect, 100 complete control)
Source text: as §2, §3, §4

[11] = system: rice flatsedge (Cyperus iria); test: Test E flooded paddy water application; conditions: Flood, 21 days, scale 0 to 100 (0 no effect, 100 complete control)
Source text: as §2, §3, §4

[12] = system: junglerice (Echinochloa colona); test: Test E flooded paddy water application; conditions: Flood, 21 days, scale 0 to 100 (0 no effect, 100 complete control)
Source text: as §2, §3, §4

[13] = system: bearded (brdd.) sprangletop (Leptochloa fusca ssp. fascicularis); test: Test E flooded paddy water application; conditions: Flood, 21 days, scale 0 to 100 (0 no effect, 100 complete control)
Source text: as §2, §3, §4

[14] = system: late watergrass (Echinochloa oryzicola); test: Test E flooded paddy water application; conditions: Flood, 21 days, scale 0 to 100 (0 no effect, 100 complete control)
Source text: as §2, §3, §4

[15] = system: ducksalad (Heteranthera limosa); test: Test E flooded paddy water application; conditions: Flood, 21 days, scale 0 to 100 (0 no effect, 100 complete control)
Source text: as §2, §3, §4

[16] = system: barnyardgrass (Echinochloa crus-galli); test: Test E flooded paddy water application; conditions: Flood, 21 days, scale 0 to 100 (0 no effect, 100 complete control)
Source text: as §2, §3, §4

[17] = Postemergence, 125 g ai/ha, 0 to 100 scale (0 no effect, 100 complete control)
[18] = Postemergence, 500 g ai/ha, 0 to 100 scale (0 no effect, 100 complete control)
[19] = Preemergence, 125 g ai/ha, 0 to 100 scale where 0 is no effect and 100 is complete control, approximately ten days
[20] = Preemergence, 500 g ai/ha, 0 to 100 scale where 0 is no effect and 100 is complete control, approximately ten days

## CCOC(=O)c1nc(-c2ccc(CC)cc2)nc(N)c1Cl [Compound 99]
[1]; [17]
  Plant response rating, Foxtail, Giant: 0
[1]; [18]
  Plant response rating, Foxtail, Giant: 0
[1]; [19]
  Plant response rating, Foxtail, Giant: 0
[1]; [20]
  Plant response rating, Foxtail, Giant: 0
[2]; [17]
  Plant response rating, Velvetleaf: 0
[2]; [18]
  Plant response rating, Velvetleaf: 35
[2]; [19]
  Plant response rating, Velvetleaf: 0
[2]; [20]
  Plant response rating, Velvetleaf: 0
[3]; [17]
  Plant response rating, Crabgrass: 0
[3]; [18]
  Plant response rating, Crabgrass: 0
[3]; [19]
  Plant response rating, Crabgrass: 0
[3]; [20]
  Plant response rating, Crabgrass: 0
[4]; [17]
  Plant response rating, Pigweed: 5
[4]; [18]
  Plant response rating, Pigweed: 10
[4]; [19]
  Plant response rating, Pigweed: 0
[4]; [20]
  Plant response rating, Pigweed: 0
[5]; [17]
  Plant response rating, Barnyardgrass: 0
[5]; [18]
  Plant response rating, Barnyardgrass: 0
[5]; [19]
  Plant response rating, Barnyardgrass: 0
[5]; [20]
  Plant response rating, Barnyardgrass: 0
[6]; [17]
  Plant response rating, Morningglory: 0
[6]; [18]
  Plant response rating, Morningglory: 0
[6]; [19]
  Plant response rating, Morningglory: 0
[6]; [20]
  Plant response rating, Morningglory: 0
[7]; 32 g ai/ha
  Rice, Transplanted plant response rating: 0
[7]; 64 g ai/ha
  Rice, Transplanted plant response rating: 0
[7]; 125 g ai/ha
  Rice, Transplanted plant response rating: 0
[7]; 250 g ai/ha
  Rice, Transplanted plant response rating: 20
[7]; 16 g ai/ha
  Plant response rating, Rice, Transplanted: 0
[8]; 32 g ai/ha
  Watergrass, Early plant response rating: 0
[8]; 64 g ai/ha
  Watergrass, Early plant response rating: 0
[8]; 125 g ai/ha
  Watergrass, Early plant response rating: 0
[8]; 250 g ai/ha
  Watergrass, Early plant response rating: 0
[8]; 16 g ai/ha
  Plant response rating, Watergrass, Early: 0
[9]; 32 g ai/ha
  Redstem plant response rating: 0
[9]; 125 g ai/ha
  Redstem plant response rating: 0
[9]; 250 g ai/ha
  Redstem plant response rating: 45
[9]; 16 g ai/ha
  Plant response rating, Redstem: 0
[10]; 32 g ai/ha
  Rice, Water Seeded plant response rating: 0
[10]; 64 g ai/ha
  Rice, Water Seeded plant response rating: 0
[10]; 125 g ai/ha
  Rice, Water Seeded plant response rating: 20
[10]; 250 g ai/ha
  Rice, Water Seeded plant response rating: 20
[10]; 16 g ai/ha
  Plant response rating, Rice, Water Seeded: 0
[11]; 64 g ai/ha
  Flatsedge, Rice plant response rating: 100
[11]; 125 g ai/ha
  Flatsedge, Rice plant response rating: 100
[11]; 250 g ai/ha
  Flatsedge, Rice plant response rating: 100
[11]; 16 g ai/ha
  Plant response rating, Flatsedge, Rice: 100
[12]; 32 g ai/ha
  Junglerice plant response rating: 0
[12]; 64 g ai/ha
  Junglerice plant response rating: 0
[12]; 125 g ai/ha
  Junglerice plant response rating: 0
[12]; 250 g ai/ha
  Junglerice plant response rating: 0
[12]; 16 g ai/ha
  Plant response rating, Junglerice: 0
[13]; 32 g ai/ha
  Sprangletop, Brdd. plant response rating: 0
[13]; 64 g ai/ha
  Sprangletop, Brdd. plant response rating: 0
[13]; 125 g ai/ha
  Sprangletop, Brdd. plant response rating: 0
[13]; 250 g ai/ha
  Sprangletop, Brdd. plant response rating: 0
[13]; 16 g ai/ha
  Plant response rating, Sprangletop, Brdd.: 0
[14]; 32 g ai/ha
  Watergrass, Late plant response rating: 0
[14]; 64 g ai/ha
  Watergrass, Late plant response rating: 0
[14]; 125 g ai/ha
  Watergrass, Late plant response rating: 0
[14]; 250 g ai/ha
  Watergrass, Late plant response rating: 0
[14]; 16 g ai/ha
  Plant response rating, Watergrass, Late: 0
[15]; 32 g ai/ha
  Ducksalad plant response rating: 100
[15]; 64 g ai/ha
  Ducksalad plant response rating: 100
[15]; 125 g ai/ha
  Ducksalad plant response rating: 100
[15]; 250 g ai/ha
  Ducksalad plant response rating: 100
[15]; 16 g ai/ha
  Plant response rating, Ducksalad: 95
[16]; 32 g ai/ha
  Barnyardgrass plant response rating: 0
[16]; 64 g ai/ha
  Barnyardgrass plant response rating: 0
[16]; 125 g ai/ha
  Barnyardgrass plant response rating: 0
[16]; 250 g ai/ha
  Barnyardgrass plant response rating: 0
[16]; 16 g ai/ha
  Plant response rating, Barnyardgrass: 0
